Experimental data from ChEMBL document CHEMBL5230103, “Hydroxamic acid hybrids as the potential anticancer agents: An Overview” (Eur J Med Chem, 2020).
pIC50: −log10 of the molar value. Converted amounts (≈) assume the structure as drawn.

Assays:
518A2 = test: Cytotoxicity against human 518A2 cells assessed as inhibition of cell growth by MTT assay; format: functional, cell-based
HCT-116 = test: Cytotoxicity against human HCT-116 cells assessed as inhibition of cell growth by MTT assay; format: functional, cell-based
PANC-1 = test: Cytotoxicity against human PANC-1 cells assessed as inhibition of cell growth by MTT assay; format: functional, cell-based
HT-29 = test: Cytotoxicity against human HT-29 cells assessed as inhibition of cell growth by MTT assay; format: functional, cell-based
[1] = Cytotoxicity against human MCF7/Topo cells assessed as inhibition of cell growth by MTT assay; format: functional, cell-based
KB-V1 = test: Cytotoxicity against human vinblastine resistant KB-V1 cells assessed as inhibition of cell growth by MTT assay; format: functional, cell-based
[2] = Cytotoxicity against chicken heart fibroblast cells; format: toxicity, cell-based, Gallus gallus
MCF7 [3] = test: cells; format: functional, cell-based; settings: Homo sapiens, MCF7, 72 h
Description: Cytotoxicity against human MCF7 cells assessed as inhibition of cell growth measured after 72 hrs by MTT assay

U2OS = test: cells; format: functional, cell-based; settings: Homo sapiens, 72 h
Description: Cytotoxicity against human U2OS cells assessed as inhibition of cell growth measured after 72 hrs by MTT assay

HepG2 [4] = test: Cytotoxicity against human HepG2 cells assessed as inhibition of cell growth measured after 72 hrs by MTT assay; format: functional, cell-based; settings: HepG2, 72 h
MCF7 [5] = test: Cytotoxicity against human MCF7 cells assessed as inhibition of cell growth by MTT assay; format: functional, cell-based
PC-3 [6] = test: Cytotoxicity against human PC-3 cells assessed as inhibition of cell growth by MTT assay; format: functional, cell-based
SW-620 [7] = test: Cytotoxicity against human SW620 cells assessed as inhibition of cell growth by MTT assay; format: functional, cell-based
ASPC1 = test: Cytotoxicity against human ASPC1 cells assessed as inhibition of cell growth by MTT assay; format: functional, cell-based
HepG2 [8] = test: Cytotoxicity against human HepG2 cells assessed as inhibition of cell growth by MTT assay; format: functional, cell-based
HL-60 = test: Antiproliferative activity against human HL-60 cells assessed as inhibition of cell growth by MTT assay; format: functional, cell-based
Histone deacetylase 2 = Histone deacetylase 2 (Homo sapiens, UniProt Q92769); test: Inhibition of HDAC2 (unknown origin)
Sequence of Histone deacetylase 2 (Q92769 whole entry): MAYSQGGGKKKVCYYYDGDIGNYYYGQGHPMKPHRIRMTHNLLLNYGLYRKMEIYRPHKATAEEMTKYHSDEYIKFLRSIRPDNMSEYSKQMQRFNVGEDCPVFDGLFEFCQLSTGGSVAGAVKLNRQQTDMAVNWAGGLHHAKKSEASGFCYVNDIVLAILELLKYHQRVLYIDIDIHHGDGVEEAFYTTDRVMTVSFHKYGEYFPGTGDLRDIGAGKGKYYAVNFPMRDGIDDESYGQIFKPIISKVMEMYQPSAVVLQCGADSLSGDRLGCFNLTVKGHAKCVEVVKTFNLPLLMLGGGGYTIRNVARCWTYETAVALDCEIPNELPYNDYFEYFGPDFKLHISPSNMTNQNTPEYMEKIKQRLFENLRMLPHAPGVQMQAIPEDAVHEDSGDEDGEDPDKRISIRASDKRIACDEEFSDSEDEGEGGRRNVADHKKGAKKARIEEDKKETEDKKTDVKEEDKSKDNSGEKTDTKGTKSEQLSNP

Histone deacetylase = test: Inhibition of HDAC (unknown origin); format: protein assay, Homo sapiens
SW-620 [9] = test: Potency index, ratio of vorinostat IC50 to test compound IC50 for cytotoxicity against human SW620 cells assessed as inhibition of cell growth by MTT assay; format: functional
PC-3 [10] = test: Potency index, ratio of vorinostat IC50 to test compound IC50 for cytotoxicity against human PC-3 cells assessed as inhibition of cell growth by MTT assay; format: functional
NCI-H23 [11] = test: Cytotoxicity against human NCI-H23 cells assessed as inhibition of cell growth by MTT assay; format: functional, cell-based
NCI-H23 [12] = test: Potency index, ratio of vorinostat IC50 to test compound IC50 for cytotoxicity against human NCI-H23 cells assessed as inhibition of cell growth by MTT assay; format: functional
A549 = test: Cytotoxicity against human A549 cells assessed as inhibition of cell growth by MTT assay; format: functional, cell-based
K562 = test: Cytotoxicity against human K562 cells assessed as inhibition of cell growth by MTT assay; format: functional, cell-based
MDA-MB-231 = test: Cytotoxicity against human MDA-MB-231 cells assessed as inhibition of cell growth by MTT assay; format: functional, cell-based
RPMI-8226 = test: Cytotoxicity against human RPMI-8226 cells assessed as inhibition of cell growth by MTS assay; format: functional, cell-based

**Q.** What does the source list for `CCn1cnc(-c2ccc(OC)cc2)c1-c1ccc(/C=C/C(=O)NO)cc1`?
**A.** pIC50 (518A2): 6.52; pIC50 (HCT-116): 6.52; pIC50 (PANC-1): 6.52; pIC50 (HT-29): 6.52; pIC50 [1]: 6.52; pIC50 (KB-V1): 6.52; pIC50 [2]: < 3.82

**Q.** With `COc1cc(NC(C)CCCCCCNC(=O)CCC(=O)NO)c2ncccc2c1` (configuration not stated) as the compound, how does the pIC50 (MCF7 [3]) read?
**A.** Its pIC50 is 5.80.

**Q.** And the pIC50 (U2OS)?
**A.** The pIC50 was 5.80.

**Q.** What about the pIC50 (HepG2 [4]) of the same compound?
**A.** The pIC50 was 5.80.

**Q.** What does the source list for `Cc1ccc(-c2nnc(NC(=O)CCCCCCC(=O)NO)s2)o1`?
**A.** pIC50 (MCF7 [5]): 6.06; pIC50 (PC-3 [6]): 6.06; pIC50 (SW-620 [7]): 6.06; pIC50 (ASPC1): 6.06

**Q.** For `C[C@H]1[C@@H](NC(=O)CCCCCC(=O)NO)O[C@@H]2O[C@@]3(C)CC[C@H]4[C@H](C)CC[C@@H]1[C@@]24OO3`, which IC50 (MCF7 [5]) is on record?
**A.** Its IC50 is 1.28 µg/mL.

**Q.** And the IC50 (HepG2 [8])?
**A.** The IC50 was 1.28 µg/mL (≈ 2.91 µM).

**Q.** And the IC50 (HL-60)?
**A.** Its IC50 is 1.28 µg/mL (≈ 2.91 µM).

**Q.** With `O=C(CCCn1cc(CN2C(=O)/C(=N\O)c3cc(F)ccc32)nn1)NO` as the compound, how does the pIC50 (Histone deacetylase 2) read?
**A.** Its pIC50 is 6.04.

**Q.** Which IC50 (MCF7 [5]) does the source give for `C[C@H]1[C@@H](NC(=O)CCCC(=O)NO)O[C@@H]2O[C@@]3(C)CC[C@H]4[C@H](C)CC[C@@H]1[C@@]24OO3` here?
**A.** Its IC50 is 1.28 µg/mL.

**Q.** And the IC50 (HepG2 [8])?
**A.** The IC50 was 1.28 µg/mL (≈ 3.1 µM).

**Q.** What about the IC50 (HL-60) of the same compound?
**A.** The IC50 was 1.28 µg/mL (≈ 3.1 µM).

**Q.** With `O=C(CCCCCCC(=O)Nc1nnc(-c2ccc(Br)o2)s1)NO` as the compound, how does the pIC50 (MCF7 [5]) read?
**A.** The pIC50 was 6.06.

**Q.** What about the pIC50 (PC-3 [6]) of the same compound?
**A.** The pIC50 was 6.06.

**Q.** What about the pIC50 (SW-620 [7]) of the same compound?
**A.** The pIC50 was 6.06.

**Q.** What about the pIC50 (ASPC1) of the same compound?
**A.** The pIC50 was 6.06.

**Q.** With `O=C(CCCn1cc(CN2C(=O)/C(=N\O)c3cc(Br)ccc32)nn1)NO` as the compound, how does the pIC50 (Histone deacetylase 2) read?
**A.** Its pIC50 is 6.04.

**Q.** With `Cc1ccc2c(=O)n(Cc3ccc(/C=C/C(=O)NO)cc3)cnc2c1` as the compound, how does the pIC50 (PC-3 [6]) read?
**A.** Its pIC50 is 6.21.

**Q.** What about the IC50 (Histone deacetylase) of the same compound?
**A.** Its IC50 is 170 nM.

**Q.** And the pIC50 (SW-620 [7])?
**A.** The pIC50 was 6.21.

**Q.** What about the “Ratio IC50” value (SW-620 [9]) of the same compound?
**A.** The value was over 3.

**Q.** And the “Ratio IC50” value (PC-3 [10])?
**A.** The value was over 3.

**Q.** What about the pIC50 (NCI-H23 [11]) of the same compound?
**A.** The pIC50 was 6.21.

**Q.** What about the “Ratio IC50” value (NCI-H23 [12]) of the same compound?
**A.** The value was over 3.

**Q.** Which results are given for `Cc1ccc(-c2nnc(NC(=O)CCCCCCC(=O)NO)s2)s1`?
**A.** pIC50 (MCF7 [5]): 6.06; pIC50 (PC-3 [6]): 6.06; pIC50 (SW-620 [7]): 6.06; pIC50 (ASPC1): 6.06

**Q.** With `O=C(CCC(=O)Nc1nnc(-c2ccc(Cl)cc2)s1)NO` as the compound, how does the pIC50 (A549) read?
**A.** The pIC50 was 4.83.

**Q.** What about the pIC50 (K562) of the same compound?
**A.** Its pIC50 is 4.83.

**Q.** What about the pIC50 (PC-3 [6]) of the same compound?
**A.** Its pIC50 is 4.83.

**Q.** And the pIC50 (MDA-MB-231)?
**A.** The pIC50 was 4.83.

**Q.** What about the IC50 (Histone deacetylase) of the same compound?
**A.** Its IC50 is 200 nM.

**Q.** With `O=C(CCCCCCC(=O)Nc1nnc(-c2cccs2)s1)NO` as the compound, how does the pIC50 (MCF7 [5]) read?
**A.** The pIC50 was 6.06.

**Q.** And the pIC50 (PC-3 [6])?
**A.** The pIC50 was 6.06.

**Q.** What about the pIC50 (SW-620 [7]) of the same compound?
**A.** The pIC50 was 6.06.

**Q.** And the pIC50 (ASPC1)?
**A.** The pIC50 was 6.06.

**Q.** What does the source list for `COc1ccc2c(c1)C1(OCCO1)C(=O)N2CCCCCCC(=O)NO`?
**A.** pIC50 (PC-3 [6]): 7.30; pIC50 (Histone deacetylase 2): 7.52; pIC50 (SW-620 [7]): 7.30; pIC50 (ASPC1): 7.30

**Q.** What does the source list for `O=C(CCCCCCC(=O)Nc1nnc(-c2ccco2)s1)NO`?
**A.** pIC50 (MCF7 [5]): 6.06; pIC50 (PC-3 [6]): 6.06; pIC50 (SW-620 [7]): 6.06; pIC50 (ASPC1): 6.06

**Q.** With `CCCCCSc1ncc(C(=O)NO)c(N(Cc2ccccc2)S(=O)(=O)c2cccc(OC)c2)n1` as the compound, how does the pIC50 (RPMI-8226) read?
**A.** The pIC50 was under 5.25.

**Q.** With `O=C(CCC(=O)Nc1nnc(-c2ccc(O)cc2)s1)NO` as the compound, how does the pIC50 (A549) read?
**A.** The pIC50 was 4.83.

**Q.** And the pIC50 (K562)?
**A.** Its pIC50 is 4.83.

**Q.** And the pIC50 (PC-3 [6])?
**A.** The pIC50 was 4.83.

**Q.** And the pIC50 (MDA-MB-231)?
**A.** The pIC50 was 4.83.

**Q.** What about the IC50 (Histone deacetylase) of the same compound?
**A.** Its IC50 is 200 nM.

**Q.** With `CCCCCSc1ncc(C(=O)NO)c(N(Cc2ccccc2)S(=O)(=O)c2ccc(OC)cc2)n1` as the compound, how does the pIC50 (RPMI-8226) read?
**A.** Its pIC50 is under 5.11.

**Q.** With `CCCCCSc1ncc(C(=O)NO)c(N(Cc2ccccc2)S(=O)(=O)c2ccc(F)cc2)n1` as the compound, how does the pIC50 (RPMI-8226) read?
**A.** The pIC50 was under 5.25.

**Q.** With `COc1cc2ncn(Cc3ccc(C(=O)NO)cc3)c(=O)c2cc1OC` as the compound, how does the pIC50 (PC-3 [6]) read?
**A.** Its pIC50 is 6.21.

**Q.** And the IC50 (Histone deacetylase)?
**A.** The IC50 was 370 nM.

**Q.** What about the pIC50 (SW-620 [7]) of the same compound?
**A.** The pIC50 was 6.21.

**Q.** What about the “Ratio IC50” value (SW-620 [9]) of the same compound?
**A.** The value was over 3.

**Q.** And the “Ratio IC50” value (PC-3 [10])?
**A.** The value was over 3.

**Q.** What about the pIC50 (NCI-H23 [11]) of the same compound?
**A.** The pIC50 was 6.21.

**Q.** What about the “Ratio IC50” value (NCI-H23 [12]) of the same compound?
**A.** The value was over 3.

**Q.** What does the source list for `COc1cc(NC(C)CCCNC(=O)CCC(=O)NO)c2ncccc2c1` (configuration not stated)?
**A.** pIC50 (MCF7 [3]): 5.80; pIC50 (U2OS): 5.80; pIC50 (HepG2 [4]): 5.80
